Patent US8952024B2, “Herbicidal pyrimidone derivatives” (E I du Pont de Nemours and Company, priority 2009, dated 2015)

Columns and labels:
Experiment in all cases: Test D pre-/postemergence plant response
Type in all cases: in vivo
[1] = test system: barnyardgrass (Echinochloa crus-galli)
In short: (§1)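 Each species was planted in mixed loam and sand, treated either before emergence or at the 1- to 4-leaf stage, then kept under glass for 14 to 21 days. Plant response was scored by eye from 0 to 100 relative to controls; a dash marks no result.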

[2] = test system: johnsongrass (Sorghum halepense)
In short: as §1

[3] = test system: Italian ryegrass (Lolium multiflorum)
In short: as §1

[4] = test system: dallisgrass (Paspalum dilatatum)
In short: as §1

[5] = test system: chickweed (common chickweed, Stellaria media); conditions: Postemergence
In short: as §1

[6] = test system: guineagrass (Panicum maximum)
In short: as §1

[7] = test system: kochia (Kochia scoparia)
In short: as §1

[8] = Postemergence, 31 g ai/ha, scale 0 to 100 (0 no effect, 100 complete control)
[9] = Postemergence, 62 g ai/ha, scale 0 to 100 (0 no effect, 100 complete control)
[10] = Postemergence, 125 g ai/ha, scale 0 to 100 (0 no effect, 100 complete control)
[11] = Postemergence, 16 g ai/ha, scale 0 to 100
[12] = Preemergence, 16 g ai/ha, scale 0 to 100, 0 no effect, 100 complete control
[13] = Preemergence, 31 g ai/ha, scale 0 to 100 (0 no effect, 100 complete control)
[14] = Preemergence, 62 g ai/ha, scale 0 to 100
[15] = Preemergence, 125 g ai/ha, scale 0 to 100
[16] = Postemergence, 31 g ai/ha, scale 0 to 100
[17] = 125 g ai/ha, scale 0 to 100 (0 no effect, 100 complete control)
[18] = Postemergence, 250 g ai/ha, scale 0 to 100 (0 no effect, 100 complete control)
[19] = 62 g ai/ha, scale 0 to 100 (0 no effect, 100 complete control)
[20] = 250 g ai/ha, scale 0 to 100 (0 no effect, 100 complete control)

COCCn1c(-c2cccc(C)c2)ncc(C(=O)C2=C(O)C3CCC(C3)C2=O)c1=O (stereo not drawn) [Compound 233]
Plant response rating, Barnyardgrass [1, 8]: 75
Plant response rating, Barnyardgrass [1, 9]: 85
Plant response rating, Barnyardgrass [1, 10]: 85
Plant response rating, Barnyardgrass [1, 11]: 65
Plant response rating, Barnyardgrass [1, 12]: 0
Plant response rating, Barnyardgrass [1, 13]: 0
Plant response rating, Barnyardgrass [1, 14]: 5
Plant response rating, Barnyardgrass [1, 15]: 40
Plant response rating, Johnsongrass [2, 16]: 35
Plant response rating, Johnsongrass [2, 9]: 50
Plant response rating, Johnsongrass [2, 10]: 50
Plant response rating, Johnsongrass [2, 11]: 20
Plant response rating, Johnsongrass [2, 12]: 0
Plant response rating, Johnsongrass [2, 13]: 0
Plant response rating, Johnsongrass [2, 14]: 20
Plant response rating, Johnsongrass [2, 15]: 65
Plant response rating, Ryegrass, Italian [3, 16]: 0
Plant response rating, Ryegrass, Italian [3, 9]: 5
Plant response rating, Ryegrass, Italian [3, 10]: 5
Plant response rating, Ryegrass, Italian [3, 11]: 0
Plant response rating, Ryegrass, Italian [3, 12]: 0
Plant response rating, Ryegrass, Italian [3, 13]: 0
Plant response rating, Ryegrass, Italian [3, 15]: 20
Plant response rating, Dallisgrass [4, 16]: 10
Plant response rating, Dallisgrass [4, 9]: 10
Plant response rating, Dallisgrass [4, 10]: 35
Plant response rating, Dallisgrass [4, 11]: 0
Plant response rating, Dallisgrass [4, 12]: 0
Plant response rating, Dallisgrass [4, 13]: 0
Plant response rating, Dallisgrass [4, 14]: 0
Plant response rating, Dallisgrass [4, 15]: 35
Plant response rating, Chickweed ([5]; 31 g ai/ha, scale 0 to 100): 50
Plant response rating, Chickweed [5, 17]: 60
Plant response rating, Guineagrass [6, 16]: 30
Plant response rating, Guineagrass [6, 9]: 40
Plant response rating, Guineagrass [6, 10]: 50
Plant response rating, Guineagrass [6, 11]: 20
Plant response rating, Guineagrass [6, 12]: 0
Plant response rating, Guineagrass [6, 13]: 0
Plant response rating, Guineagrass [6, 14]: 0
Plant response rating, Guineagrass [6, 15]: 0
Plant response rating, Kochia [7, 16]: 20
Plant response rating, Kochia [7, 9]: 30
Plant response rating, Kochia [7, 10]: 35
Plant response rating, Kochia [7, 11]: 10
Plant response rating, Kochia [7, 12]: 0
Plant response rating, Kochia [7, 13]: 0
Plant response rating, Kochia [7, 14]: 20
Plant response rating, Kochia [7, 15]: 80

COCCn1c(-c2cccc(F)c2)ncc(C(=O)C2=C(O)C3CCC(C3)C2=O)c1=O (stereo not drawn) [Compound 235]
Plant response rating, Barnyardgrass [1, 8]: 80
Plant response rating, Barnyardgrass [1, 9]: 80
Plant response rating, Barnyardgrass [1, 10]: 95
Plant response rating, Barnyardgrass [1, 18]: 95
Plant response rating, Johnsongrass [2, 16]: 70
Plant response rating, Johnsongrass [2, 9]: 70
Plant response rating, Johnsongrass [2, 10]: 85
Plant response rating, Johnsongrass [2, 18]: 85
Plant response rating, Ryegrass, Italian [3, 16]: 5
Plant response rating, Ryegrass, Italian [3, 9]: 5
Plant response rating, Ryegrass, Italian [3, 10]: 5
Plant response rating, Ryegrass, Italian [3, 18]: 35
Plant response rating, Dallisgrass [4, 16]: 70
Plant response rating, Dallisgrass [4, 9]: 75
Plant response rating, Dallisgrass [4, 10]: 80
Plant response rating, Dallisgrass [4, 18]: 80
Plant response rating, Chickweed ([5]; 31 g ai/ha, scale 0 to 100): 5
Plant response rating, Chickweed [5, 19]: 30
Plant response rating, Chickweed [5, 17]: 60
Plant response rating, Chickweed [5, 20]: 70
Plant response rating, Guineagrass [6, 16]: 75
Plant response rating, Guineagrass [6, 9]: 75
Plant response rating, Guineagrass [6, 10]: 75
Plant response rating, Guineagrass [6, 18]: 75
Plant response rating, Kochia [7, 16]: 20
Plant response rating, Kochia [7, 9]: 60
Plant response rating, Kochia [7, 10]: 70
Plant response rating, Kochia [7, 18]: 85

COCCCn1c(-c2cccc(F)c2)ncc(C(=O)C2=C(O)C3CCC(C3)C2=O)c1=O (stereo not drawn) [Compound 238]
Plant response rating, Barnyardgrass [1, 8]: 75
Plant response rating, Barnyardgrass [1, 9]: 80
Plant response rating, Barnyardgrass [1, 10]: 85
Plant response rating, Barnyardgrass [1, 18]: 95
Plant response rating, Johnsongrass [2, 16]: 60
Plant response rating, Johnsongrass [2, 9]: 70
Plant response rating, Johnsongrass [2, 10]: 75
Plant response rating, Johnsongrass [2, 18]: 80
Plant response rating, Ryegrass, Italian [3, 16]: 5
Plant response rating, Ryegrass, Italian [3, 9]: 5
Plant response rating, Ryegrass, Italian [3, 10]: 5
Plant response rating, Ryegrass, Italian [3, 18]: 5
Plant response rating, Dallisgrass [4, 16]: 10
Plant response rating, Dallisgrass [4, 9]: 65
Plant response rating, Dallisgrass [4, 10]: 70
Plant response rating, Dallisgrass [4, 18]: 75
Plant response rating, Chickweed ([5]; 31 g ai/ha, scale 0 to 100): 30
Plant response rating, Chickweed [5, 19]: 35
Plant response rating, Chickweed [5, 17]: 40
Plant response rating, Chickweed [5, 20]: 50
Plant response rating, Guineagrass [6, 16]: 25
Plant response rating, Guineagrass [6, 9]: 50
Plant response rating, Guineagrass [6, 10]: 65
Plant response rating, Guineagrass [6, 18]: 75
Plant response rating, Kochia [7, 16]: 20
Plant response rating, Kochia [7, 9]: 50
Plant response rating, Kochia [7, 10]: 65
Plant response rating, Kochia [7, 18]: 75
